Earlier results in US20060159622A1, “Pharmacodynamic assay for inhibitors of 11-beta-hydroxysteroid dehydrogenase activity in animal tissues” (priority 2003, published 2006).

Test system: HSD
Conditions: normal human volunteers

SMILES: CC1(C)[C@@H](OC(=O)CCC(=O)O)CC[C@]2(C)[C@H]3C(=O)C=C4[C@@H]5C[C@@](C)(C(=O)O)CC[C@]5(C)CC[C@@]4(C)[C@]3(C)CC[C@@H]12 [carbenoxolone]
- insulin sensitivity: increased insulin sensitivity
